Test [1] has as its target human DHODH (Homo sapiens (Human), UniProt Q02127). Nature of the test: DHODH Enzymatic Assay. To be noted: purified human DHODH, DCIP absorbance, end-point mode; read-out: hDHODH IC50. In kind it is biochemical. The protocol: The following assay is referred to herein as the “DHODH Enzymatic Assay.” To detect DHODH enzyme activities, dichloroindophenol (DCIP) is added as the final electron acceptor in the assay. DCIP can accept electrons from the reduced coenzyme Q generated in the assay, or from dihydroorotate (DHO) via FMN by binding presumably to the ubiquinone pocket. DCIP solutions are blue, with an intense absorbance around 600 nm, but becomes colorless upon reduction (J. Biol. Chem. (1986) 261, 11386). The assay buffer contained […], pH 7.5, 150 mM NaCl, 0.5 mM EDTA, and 0.1% Triton X-100 in MilliQ water. Substrate consisting of 20 mM DHO, 5 mM CoQ6, and 1 mM DCIP in assay buffer, initiates the reaction. The assay is run in end-point mode by quenching the reaction with the potent DHODH inhibitor brequinar. Absorbance measurements were obtained using the BMG Phera Star plate-reading spectrophotomer. Purified human DHODH was purchased from Proteros (cat. No. PR-0044). Chemicals were purchased from Sigma-Aldrich, Teknova, and Avanti Polar Lipids. Liquid handling was performed using Labcyte Echo and Formulatrix Tempest.

The test system of test [2] is MOLM-13 cells (human acute myeloid leukemia cells). In words: MOLM-13 Cellular Assay. In kind it is cell-based. To be noted: 72 hours exposure, cell viability by CellTiter-Glo. The procedure:
The following assay is referred to herein as the “MOLM-13 Cellular Assay.” MOLM-13 cells (human acute myeloid leukemia cells) were obtained from DSMZ and were maintained in RPMI 1640+Glutamax+25 mM HEPES (Invitrogen, catalog number 72400) supplemented with 10% heat inactivated fetal bovine serum (FBS; Invitrogen, catalog number 16140). The day prior to assay set-up, cells were pelleted, resuspended in fresh media, counted, and cells were plated at 0.4×10^6 cell/mL in a T150 flask. On the day of the assay, cells were pelleted, resuspend in fresh media, counted and seeded at 5,000 cells/well in white opaque 96-well tissue culture treated microplates (Perkin Elmer, catalog number 6005680). Cells were exposed to different concentrations of test compounds at 37° C., 5% CO2 for 72 hours immediately after seeding. Cell viability was acquired on a Perkin Elmer Envision 2104 multilabel reader using the CellTiter-Glo assay (Promega) according to the manufacturer's instructions.
Background: Cellular ATP, detected with luciferase, serves as a proxy for viable cell number.

Sequence of human DHODH (Q02127 whole entry): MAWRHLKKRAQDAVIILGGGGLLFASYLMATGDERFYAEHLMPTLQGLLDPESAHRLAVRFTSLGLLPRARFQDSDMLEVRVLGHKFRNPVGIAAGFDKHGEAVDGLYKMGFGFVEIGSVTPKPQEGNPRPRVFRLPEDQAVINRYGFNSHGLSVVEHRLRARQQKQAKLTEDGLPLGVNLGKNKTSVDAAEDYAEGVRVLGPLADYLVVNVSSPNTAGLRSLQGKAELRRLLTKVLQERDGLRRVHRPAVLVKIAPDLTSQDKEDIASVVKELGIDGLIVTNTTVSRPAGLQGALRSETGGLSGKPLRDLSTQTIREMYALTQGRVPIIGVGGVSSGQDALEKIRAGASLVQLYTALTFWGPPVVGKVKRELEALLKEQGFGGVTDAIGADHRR

Usually IC50 stands for the concentration at which inhibition is half-maximal. On to `CCn1c(CO)nn(-c2ccc3c(=O)n(-c4cccc(F)c4)nc(C(C)C)c3c2)c1=O` [Example 18, 6-(4-Ethyl-3-(hydroxymethyl)-5-oxo-4,5-dihydro-1H-1,2,4-triazol-1-yl)-2-(3-fluorophenyl)-4-isopropylphthalazin-1(2H)-one], for which the IC50 in test [1] was 80.7 nM; in test [2] (Homo sapiens, MOLM-13, 72 h), 30 nM.

For the molecule `CCn1c(CO)nn(-c2ccc3c(=O)n(-c4c(F)cccc4Cl)nc(C(C)C)c3c2)c1=O` [Example 19, 2-(2-Chloro-6-fluorophenyl)-6-(4-ethyl-3-(hydroxymethyl)-5-oxo-4,5-dihydro-1H-1,2,4-triazol-1-yl)-4-isopropylphthalazin-1(2H)-one], the concentration for half-maximal inhibition (IC50) in test [1] came to 4.96 nM; in test [2] (Homo sapiens, MOLM-13, 72 h), 4 nM.

Consider `CCc1nn(-c2cccc(F)c2)c(=O)c2ccc(-n3nc(CO)n(CC)c3=O)cc12` [Example 20, 4-Ethyl-6-(4-ethyl-3-(hydroxymethyl)-5-oxo-4,5-dihydro-1H-1,2,4-triazol-1-yl)-2-(3-fluorophenyl)phthalazin-1(2H)-one], for which the IC50 in test [1] came to 83.5 nM; in test [2] (Homo sapiens, MOLM-13, 72 h) it was 100 nM.

As to `CCc1nn(-c2ccccc2C)c(=O)c2ccc(-n3nc(CO)n(CC)c3=O)cc12` [Example 21, 4-Ethyl-6-(4-ethyl-3-(hydroxymethyl)-5-oxo-4,5-dihydro-1H-1,2,4-triazol-1-yl)-2-(o-tolyl)phthalazin-1(2H)-one], the IC50 in test [1] was found to be 31.2 nM; in test [2] (Homo sapiens, MOLM-13, 72 h), 10 nM.

As to `CCn1c(CO)nn(-c2cc3c(C(C)C)cn(-c4ccccc4C)c(=O)c3cc2F)c1=O` [Example 22, 6-(4-Ethyl-3-(hydroxymethyl)-5-oxo-4,5-dihydro-1H-1,2,4-triazol-1-yl)-7-fluoro-4-isopropyl-2-(o-tolyl)isoquinolin-1(2H)-one], the IC50 is 0.396 nM in test [1]; 0.2 nM in test [2]; no more than 0.2 nM in test [2] (Homo sapiens, MOLM-13, 72 h).

As for `CCn1c(CO)nn(-c2cc3c(C(C)C)cn(-c4c(C)ccnc4Cl)c(=O)c3cc2F)c1=O` [Example 23, 2-(2-Chloro-4-methylpyridin-3-yl)-6-(4-ethyl-3-(hydroxymethyl)-5-oxo-4,5-dihydro-1H-1,2,4-triazol-1-yl)-7-fluoro-4-isopropylisoquinolin-1(2H)-one], the IC50 turned out to be 3.57 nM in test [1] and 3 nM in test [2] (Homo sapiens, MOLM-13, 72 h).

Regarding `CCn1c(CO)nn(-c2ccc3c(=O)n(-c4c(F)cccc4Cl)cc(C4(C)CC4)c3c2)c1=O` [Example 24, 2-(2-Chloro-6-fluorophenyl)-6-(4-ethyl-3-(hydroxymethyl)-5-oxo-4,5-dihydro-1H-1,2,4-triazol-1-yl)-4-(1-methylcyclopropyl)isoquinolin-1(2H)-one], the IC50 in test [1] stood at 1.65 nM; in test [2] (Homo sapiens, MOLM-13, 72 h) it was 1 nM.

In the case of `CCn1c(CO)nn(-c2ccc3c(=O)n(-c4ccccc4C)cc(N(C)C)c3c2)c1=O` [Example 26, 4-(Dimethylamino)-6-(4-ethyl-3-(hydroxymethyl)-5-oxo-4,5-dihydro-1H-1,2,4-triazol-1-yl)-2-(o-tolyl)isoquinolin-1(2H)-one], the IC50 came to 46.5 nM in test [1] and 20 nM in test [2] (Homo sapiens, MOLM-13, 72 h).

In the case of `CCn1c(CO)nn(-c2cc3c(C(C)C)cn(-c4c(C)n[nH]c4Cl)c(=O)c3cc2F)c1=O` [Example 31, 2-(5-Chloro-3-methyl-1H-pyrazol-4-yl)-6-(4-ethyl-3-(hydroxymethyl)-5-oxo-4,5-dihydro-1H-1,2,4-triazol-1-yl)-7-fluoro-4-isopropylisoquinolin-1(2H)-one], the IC50 was 0.764 nM in test [1] and 6 nM in test [2] (Homo sapiens, MOLM-13, 72 h).

For the molecule `C=C(C)c1cn(-c2ccccc2C)c(=O)c2cc(F)c(-n3nc(CO)n(CC)c3=O)nc12` [Example 32, 2-(4-Ethyl-3-(hydroxymethyl)-5-oxo-4,5-dihydro-1H-1,2,4-triazol-1-yl)-3-fluoro-8-(prop-1-en-2-yl)-6-(o-tolyl)-1,6-naphthyridin-5(6H)-one], the IC50 in test [1] came out at 1.01 nM; in test [2] (Homo sapiens, MOLM-13, 72 h) it was 2 nM.

Consider `CCn1c(CO)nn(-c2nc3c(C)nn(-c4ccccc4C)c(=O)c3cc2F)c1=O` [Example 33, 2-(4-Ethyl-3-(hydroxymethyl)-5-oxo-4,5-dihydro-1H-1,2,4-triazol-1-yl)-3-fluoro-8-methyl-6-(o-tolyl)pyrido[2,3-d]pyridazin-5(6H)-one], for which the concentration for half-maximal inhibition (IC50) in test [1] is 240 nM; in test [2] (Homo sapiens, MOLM-13, 72 h), greater than 100 nM.

Turning to `CCn1c(CO)nn(-c2nc3c(C(C)C)nn(-c4ccccc4C)c(=O)c3cc2F)c1=O` [Example 34, 2-(4-Ethyl-3-(hydroxymethyl)-5-oxo-4,5-dihydro-1H-1,2,4-triazol-1-yl)-3-fluoro-8-isopropyl-6-(o-tolyl)pyrido[2,3-d]pyridazin-5(6H)-one], the IC50 in test [1] amounted to 1.97 nM; in test [2] (Homo sapiens, MOLM-13, 72 h), 4 nM.

For `C=C(C)c1cn(-c2c(F)cccc2Cl)c(=O)c2cc(F)c(-n3nc(CO)n(CC)c3=O)nc12` [Example 35, 6-(2-Chloro-6-fluorophenyl)-2-(4-ethyl-3-(hydroxymethyl)-5-oxo-4,5-dihydro-1H-1,2,4-triazol-1-yl)-3-fluoro-8-(prop-1-en-2-yl)-1,6-naphthyridin-5(6H)-one], the IC50 in test [1] is 1.15 nM; in test [2] (Homo sapiens, MOLM-13, 72 h), 1 nM.

As for `CCn1c(CO)nn(-c2nc3c(C(C)C)cn(-c4c(F)cccc4Cl)c(=O)c3cc2F)c1=O` [Example 36, 6-(2-Chloro-6-fluorophenyl)-2-(4-ethyl-3-(hydroxymethyl)-5-oxo-4,5-dihydro-1H-1,2,4-triazol-1-yl)-3-fluoro-8-isopropyl-1,6-naphthyridin-5(6H)-one], the IC50 in test [1] came to 0.356 nM; in test [2] (Homo sapiens, MOLM-13, 72 h), 0.4 nM.

For the molecule `CCn1c(CO)nn(-c2nc3c([C@H](C)C(F)(F)F)cn(-c4ccccc4C)c(=O)c3cc2F)c1=O` [Example 37, (S)-2-(4-Ethyl-3-(hydroxymethyl)-5-oxo-4,5-dihydro-1H-1,2,4-triazol-1-yl)-3-fluoro-6-(o-tolyl)-8-(1,1,1-trifluoropropan-2-yl)-1,6-naphthyridin-5(6H)-one], the IC50 was 1.88 nM in test [1] and 3 nM in test [2] (Homo sapiens, MOLM-13, 72 h).

Consider `CCn1c(CO)nn(-c2nc3c([C@@H](C)C(F)(F)F)cn(-c4ccccc4C)c(=O)c3cc2F)c1=O` [Example 38, (R)-2-(4-Ethyl-3-(hydroxymethyl)-5-oxo-4,5-dihydro-1H-1,2,4-triazol-1-yl)-3-fluoro-6-(o-tolyl)-8-(1,1,1-trifluoropropan-2-yl)-1,6-naphthyridin-5(6H)-one], for which the IC50 was determined as 0.464 nM in test [1] and 0.5 nM in test [2] (Homo sapiens, MOLM-13, 72 h).

For `CCn1c(CO)nn(-c2cc3c(C(C)C)cn(-c4scnc4C)c(=O)c3cc2F)c1=O` [Example 39, 6-(4-Ethyl-3-(hydroxymethyl)-5-oxo-4,5-dihydro-1H-1,2,4-triazol-1-yl)-7-fluoro-4-isopropyl-2-(4-methylthiazol-5-yl)isoquinolin-1(2H)-one], the IC50 in test [1] turned out to be 13 nM; in test [2] (Homo sapiens, MOLM-13, 72 h) it was 40 nM.

`CCn1c(CO)nn(-c2nc3c(C(C)C)cn(-c4ccccc4C)c(=O)c3cc2F)c1=O` [Example 40, 2-(4-Ethyl-3-(hydroxymethyl)-5-oxo-4,5-dihydro-1H-1,2,4-triazol-1-yl)-3-fluoro-8-isopropyl-6-(o-tolyl)-1,6-naphthyridin-5(6H)-one]: the IC50 was found to be 0.802 nM in test [1] and 0.8 nM in test [2] (Homo sapiens, MOLM-13, 72 h).

For `CCn1c(CO)nn(-c2cc3c(C(C)C)cn(-c4cc(C)ccc4F)c(=O)c3cc2F)c1=O` [Example 41, 6-(4-Ethyl-3-(hydroxymethyl)-5-oxo-4,5-dihydro-1H-1,2,4-triazol-1-yl)-7-fluoro-2-(2-fluoro-5-methylphenyl)-4-isopropylisoquinolin-1(2H)-one], the IC50 amounted to 2.98 nM in test [1] and 2 nM in test [2] (Homo sapiens, MOLM-13, 72 h).

`C=C(C)c1cn(-c2cc(C)ccc2F)c(=O)c2cc(F)c(-n3nc(CO)n(CC)c3=O)cc12` [Example 42, 6-(4-Ethyl-3-(hydroxymethyl)-5-oxo-4,5-dihydro-1H-1,2,4-triazol-1-yl)-7-fluoro-2-(2-fluoro-5-methylphenyl)-4-(prop-1-en-2-yl)isoquinolin-1(2H)-one]: the IC50 in test [1] is 1.69 nM; in test [2] (Homo sapiens, MOLM-13, 72 h) it was 0.9 nM.

Take `C=C(C)c1cn(-c2cc(C)ccc2Cl)c(=O)c2cc(F)c(-n3nc(CO)n(CC)c3=O)cc12` [Example 43, 2-(2-Chloro-5-methylphenyl)-6-(4-ethyl-3-(hydroxymethyl)-5-oxo-4,5-dihydro-1H-1,2,4-triazol-1-yl)-7-fluoro-4-(prop-1-en-2-yl)isoquinolin-1(2H)-one]: the IC50 is 0.917 nM in test [1] and 0.4 nM in test [2] (Homo sapiens, MOLM-13, 72 h).

These data come from patent US11505536B2, “Dihydroorotate dehydrogenase inhibitors” (Janssen Biotech, Inc., priority 2019, dated 2022).
